Measurements taken from patent publication US20230386637A1, “Polymorphisms for Predicting Treatment Response to Antipsychotic Drugs and Identifying New Drug Targets” (Northwestern University, priority 2018, published 2023).

How the values were obtained:
mouse prefrontal cortex = conditions: subeffective dose of SB269970 with subeffective dose of lurasidone; awake freely moving mice; cited from earlier work
[1] = test system: acutely psychotic SCZ patients; assay: Pearl 1 and Pearl 2 six-week randomized placebo-controlled lurasidone trials, GWAS sample; assay type: in vivo, human
Description: The clinical trials, subjects, and genotyping. The two clinical trials used for this analysis are both six-week, randomized, double-blind, lurasidone, placebo-controlled, multicenter registration trials, of DSM-IV acutely psychotic SCZ patients (Meltzer et al., 2011b; Nasrallah et al., 2013b). Patients who met TRS criteria were excluded. There were four fixed-dose treatment arms: lurasidone 40 and 120 mg/day, another atypical APD, olanzapine, 15 mg/day, and placebo (Pearl 1) (Meltzer et al., 2011b) and lurasidone 40, 80, and 120 mg/day, and placebo (Pearl 2) (Nasrallah et al., 2013b). The percentages of patients who achieved the a priori determined response: >20% improvement in ΔPANSS-T, was 61% in both the Pearl 1 and 2 studies. A total of 171/63 Caucasian and 131/54 AA for lurasidone/placebo-treated patients consented to participate in the genetic study. Ethnicity was validated as described below.
Evaluation of treatment response. The primary measure of efficacy, ΔPANSS-Total, was the difference between baseline and last observation carried forward (LOCF) for those with at least one PANSS rating after baseline. Results could be pooled across drug dosage arms because clinical change was not dose related (data not presented). The intention-to-treat (ITT) population included 157, 73, and 156 patients who received 40, 80, and 120 mg/day doses of lurasidone, respectively. Subjects within the 30th percentiles for greatest or least improvement in PANSS-Total (referred to as best and worst responders, hereafter) were included in a secondary analysis as previously done for iloperidone (Lavedan et al., 2009).
Population stratification. […] Population stratification and separation was employed throughout the following analyses. This process yielded 234 Caucasians, 171 and 63 in the lurasidone- and placebo-treated groups, respectively. There were […], 131 and 54 in the lurasidone- and placebo groups, respectively. Adjustment using the top three PCs within each ethnic group was applied to the association tests. The QQ plots indicated no marked deviations of the observed distributions from the expected null distributions with genome inflation factor=1.00 for both ethnic groups (FIG. 1c, d). Both Kolmogorov-Smimov and Shapiro-Wilk tests indicated ΔPANSS-T followed the normal distribution with skewness and kurtosis indices between-1 and +1. Therefore, no subjects had to be excluded from the analysis.

[2] = in vivo; cited from earlier work
[3] = test system: acutely psychotic SCZ patients; assay: PEARL 1, 2 and PEARL 3 six-week placebo-controlled lurasidone trials, GWAS subjects of the meta-analysis; assay type: in vivo, human
Excerpt: Participants. The three clinical trials (Loebel et al., 2013a; Meltzer et al., 2011a; Nasrallah et al., 2013) used in this analysis were six-week, randomized, double-blind, placebo-controlled, multicenter registration trials, of DSM-IV acutely psychotic SCZ patients. The primary measure of efficacy, ΔPANSS-TOT, was the difference between baseline and last observation carried forward (LOCF) for those with at least one PANSS rating at, or after two weeks of treatment, (ΔPANSS-TOTLOCF6WK=PANSSTOTLOCF6WK-PANSS-TOTBaseline). The overall mean percentage of patients who achieved a priori determined response: ≥20% improvement in ΔPANSS-TOTLOCF6WK, was 61% in the PEARL 1, 2 and 3 studies. A total of 587 subjects with valid treatment response data and verified race from two ethnic populations, EUR and AFR, gave written informed consent to participate in genetics study (368 of 545 (67.5% with EUR ancestry and 219 of 403 (54.3% with AFR ancestry). These trials included a small number of patients randomized to treatment with olanzapine (PEARL 1) or quetiapine (PEARL 3). There were too few subjects with genetic data to include them as a separate group in this analysis.
PEARL 3 was considered an independent dataset due to a significant difference in PANSS-TOTBaseline, inclusion of a higher dose of lurasidone (160 mg/d), and an unequal variance, compared to PEARL 1/2, in ΔPANSS-TOTLOCF6WK by Leven test (Table 1). Samples from the corresponding placebo groups of all three trials were pooled together due to a relatively small sample size per trial and absence of significant differences in demographic and clinical data. Thus, three groups (PEARL 1+2, PEARL 3 and Placebo) per ethnicity were independently examined for quality control (QC), PCA for genetic architectures, and GWAS analyses before determining summary statistics at the individual SNP level. Both Kolmogorov-Smimov and Shapiro-Wilk tests indicated ΔPANSS-TOTLOCF6WK followed a normal distribution with skewness and kurtosis indices between −1 and +1. Therefore, no subjects were excluded from the analysis.

[4] = African ancestry, Pearl 1, 2, n=124
[5] = African ancestry, Pearl 3, n=34
[6] = European ancestry, Pearl 1, 2, n=165
[7] = European ancestry, Pearl 3, n=99

Compound: CC1CCN(CC[C@H]2CCCN2S(=O)(=O)c2cccc(O)c2)CC1 [SB269970]
- effect on lurasidone-induced dopamine efflux (mouse prefrontal cortex): potentiated

Compound: O=C1[C@@H]2[C@H]3CC[C@H](C3)[C@@H]2C(=O)N1C[C@@H]1CCCC[C@H]1CN1CCN(c2nsc3ccccc23)CC1 [lurasidone]
- PANSS anxiety/depression Change (LOCP) ([1]; African-Americans, n=131): −3.3 ± 4.1
- PANSS disorganization Change (LOCF) ([1]; African-Americans, n=131): −4.0 ± 4.4
- PANSS excited Change (LOCF) ([1]; African-Americans, n=131): −1.2 ± 4.0
- PANSS negative Change (LOCF) ([1]; African-Americans, n=131): −4.2 ± 4.6
- PANSS positive Change (LOCF) ([1]; African-Americans, n=131): −5.3 ± 4.4
- PANSS total Change (LOCF) ([1]; African-Americans, n=131): −18.0 ± 16.3
- PANSS anxiety/depression Change (LOCP) ([1]; Caucasians, n=171): −2.1 ± 4.2
- PANSS disorganization Change (LOCF) ([1]; Caucasians, n=171): −4.0 ± 4.2
- PANSS excited Change (LOCF) ([1]; Caucasians, n=171): −1.4 ± 3.7
- PANSS negative Change (LOCF) ([1]; Caucasians, n=171): −3.3 ± 4.8
- PANSS positive Change (LOCF) ([1]; Caucasians, n=171): −5.1 ± 4.9
- PANSS total Change (LOCF) ([1]; Caucasians, n=171): −15.9 ± 17.0
- CGI Change (LOCF) ([1]; Caucasians, n=171, lurasidone 40/80/120 mg, baseline to LOCF, mean ± SD): −1.0 ± 1.0
- percentages of patients who achieved the a priori determined response: >20% improvement in ΔPANSS-T ([1]; both the Pearl 1 and 2 studies): 61%
- side effect profile [2]: relatively benign side effect profile
- % change of Psychopathology PANSE_NEG [3, 4]: −13.44(22.75) %
- % change of Psychopathology PANSS_POS [3, 4]: −25.80(24.91) %
- % change of Psychopathology PANSS_TOT [3, 4]: −16.55(17.79) %
- Δ change of Psychopathology PANSS_NEG [3, 4]: −3.26(4.82)
- Δ change of Psychopathology PANSS_POS [3, 4]: −5.15(4.93)
- Δ change of Psychopathology PANSS_TOT ([3]; African ancestry, Pearl 1, 2, n=124, lurasidone 40/80/120 mg/d): −15.88(16.97)
- % change of Psychopathology PANSE_NEG [3, 5]: −15.66(22.26) %
- % change of Psychopathology PANSS_POS [3, 5]: −30.04(22.51) %
- % change of Psychopathology PANSS_TOT [3, 5]: −22.47(19.05) %
- Δ change of Psychopathology PANSS_NEG [3, 5]: −3.85(4.88)
- Δ change of Psychopathology PANSS_POS [3, 5]: −5.71(4.35)
- Δ change of Psychopathology PANSS_TOT ([3]; African ancestry, Pearl 3, n=34, lurasidone 80/160 mg/d): −21.95(18.15)
- % change of Psychopathology PANSS_NEG [3, 6]: −13.44(22.75) %
- % change of Psychopathology PANSS_POS [3, 6]: −25.80(24.91) %
- % change of Psychopathology PANSS_TOT [3, 6]: −16.55(17.79) %
- Δ change of Psychopathology PANSS_NEG [3, 6]: −3.26(4.82)
- Δ change of Psychopathology PANSS_POS [3, 6]: −5.15(4.93)
- Δ change of Psychopathology PANSS_TOT ([3]; European ancestry, Pearl 1, 2, n=165, lurasidone 40/80/120 mg/d): −15.88(16.97)
- % change of Psychopathology PANSS_NEG [3, 7]: −15.66(22.26) %
- % change of Psychopathology PANSS_POS [3, 7]: −30.04(22.51) %
- % change of Psychopathology PANSS_TOT [3, 7]: −22.47(19.05) %
- Δ change of Psychopathology PANSS_NEG [3, 7]: −3.85(4.88)
- Δ change of Psychopathology PANSS_POS [3, 7]: −5.71(4.35)
- Δ change of Psychopathology PANSS_TOT ([3]; European ancestry, Pearl 3, n=99, lurasidone 80/160 mg/d): −21.95(18.15)
- overall mean percentage of patients who achieved a priori determined response: ≥20% improvement in ΔPANSS-TOTLOCF6WK ([3]; PEARL 1, 2 and 3 studies): 61%
